Calls of active or inactive are those of the source. No cut-off for these calls is given here.
Key:
BXPC-3 [1] = assay: Induction of apoptosis in human BxPC3 cells assessed as accumulation at sub-G0/G1 phase at 20 uM after 24 hrs by propidium iodide staining based flow cytometry (reference value: 2.3%); type: functional
BXPC-3 [2] = assay: Induction of apoptosis in human BxPC3 cells assessed as accumulation at sub-G0/G1 phase at 20 uM after 48 hrs by propidium iodide staining based flow cytometry (reference value: 2.8%); type: functional
BXPC-3 [3] = assay: Induction of apoptosis in human BxPC3 cells assessed as accumulation at sub-G0/G1 phase at 20 uM after 72 hrs by propidium iodide staining based flow cytometry (reference value: 3.4%); type: functional
BXPC-3 [4] = assay: Induction of apoptosis in human BxPC3 cells assessed as accumulation at sub-G0/G1 phase harboring pSFFV-Bcl-XL at 20 uM after 48 hrs by propidium iodide staining based flow cytometry (reference value: 1.3%); type: functional
BXPC-3 [5] = assay: Induction of apoptosis in human BxPC3 cells assessed as accumulation at sub-G0/G1 phase harboring pSFFV-Bcl-XL at 20 uM after 72 hrs by propidium iodide staining based flow cytometry (reference value: 1.3%); type: functional
PANC-1 [6] = assay: Induction of apoptosis in human PANC1 cells assessed as accumulation at sub-G0/G1 phase at 20 uM after 24 hrs by propidium iodide staining based flow cytometry (reference value: 0.6 to 0.7%); type: functional
PANC-1 [7] = assay: Induction of apoptosis in human PANC1 cells assessed as accumulation at sub-G0/G1 phase at 20 uM after 72 hrs by propidium iodide staining based flow cytometry (reference value: 1.6 to 3.2%); type: functional
PK9 [8] = assay: Induction of apoptosis in human PK9 cells assessed as accumulation at sub-G0/G1 phase at 20 uM after 24 hrs by propidium iodide staining based flow cytometry (reference value: 2.2%); type: functional
PK9 [9] = assay: Induction of apoptosis in human PK9 cells assessed as accumulation at sub-G0/G1 phase at 20 uM after 48 hrs by propidium iodide staining based flow cytometry (reference value: 3.8%); type: functional
Fibroblast [10] = assay: Induction of apoptosis in human primary fibroblasts at 20 uM after 24 hrs by propidium iodide staining based flow cytometry (reference value: 4.8%); type: cell-based
Fibroblast [11] = assay: Induction of apoptosis in human primary fibroblasts at 20 uM after 48 hrs by propidium iodide staining based flow cytometry (reference value: 6.1%); type: cell-based
Fibroblast [12] = assay: Induction of apoptosis in human primary fibroblasts at 20 uM after 72 hrs by propidium iodide staining based flow cytometry (reference value: 6.7%); type: cell-based
[13] = Induction of apoptosis in HPNE cells assessed as accumulation at sub-G0/G1 phase at 20 uM after 24 hrs by propidium iodide staining based flow cytometry (reference value: 0.6%); type: cell-based; details: human
[14] = Induction of apoptosis in HPNE cells assessed as accumulation at sub-G0/G1 phase at 20 uM after 48 hrs by propidium iodide staining based flow cytometry (reference value: 0.7%); type: cell-based; details: human
PANC-1 [15] = assay: Induction of apoptosis in human PANC1 cells assessed as accumulation at sub-G0/G1 phase at 10 uM after 72 hrs by propidium iodide staining based flow cytometry (reference value: 1.6 to 3.2%); type: functional
BXPC-3 [16] = assay: Induction of apoptosis in human BxPC3 cells assessed as accumulation at sub-G0/G1 phase at 10 uM after 24 hrs by propidium iodide staining based flow cytometry (reference value: 1.8%); type: functional
BXPC-3 [17] = assay: Induction of apoptosis in human BxPC3 cells assessed as accumulation at sub-G0/G1 phase at 10 uM after 48 hrs by propidium iodide staining based flow cytometry (reference value: 2.8%); type: functional
BXPC-3 [18] = assay: Induction of apoptosis in human BxPC3 cells harboring pSFFV-Bcl-XL assessed as accumulation at sub-G0/G1 phase at 10 uM after 24 hrs by propidium iodide staining based flow cytometry (reference value: 1.5%); type: functional
BXPC-3 [19] = assay: Induction of apoptosis in human BxPC3 cells harboring pSFFV-Bcl-XL assessed as accumulation at sub-G0/G1 phase at 10 uM after 48 hrs by propidium iodide staining based flow cytometry (reference value: 1.9%); type: functional
PK9 [20] = assay: Induction of apoptosis in human PK9 cells assessed as accumulation at sub-G0/G1 phase at 10 uM after 24 hrs by propidium iodide staining based flow cytometry (reference value: 2.2%); type: functional
PK9 [21] = assay: Induction of apoptosis in human PK9 cells assessed as accumulation at sub-G0/G1 phase at 10 uM after 72 hrs by propidium iodide staining based flow cytometry (reference value: 4%); type: functional
[22] = Induction of apoptosis in HPNE cells assessed as accumulation at sub-G0/G1 phase at 10 uM after 48 hrs by propidium iodide staining based flow cytometry (reference value: 0.7%); type: cell-based; details: human
[23] = Induction of apoptosis in HPNE cells assessed as accumulation at sub-G0/G1 phase at 10 uM after 72 hrs by propidium iodide staining based flow cytometry (reference value: 6.6%); type: cell-based; details: human
MIA PaCa-2 [24] = assay: Induction of apoptosis in human MIAPaCa2 cells assessed as live cells at 20 uM after 24 hrs by Annexin V-FITC/propidium iodide staining based flow cytometry (reference value: 86.79%); type: functional
MIA PaCa-2 [25] = assay: Induction of apoptosis in human MIAPaCa2 cells assessed as early apoptotic cells at 20 uM after 24 hrs by Annexin V-FITC/propidium iodide staining based flow cytometry (reference value: 5.16%); type: functional
MIA PaCa-2 [26] = assay: Induction of apoptosis in human MIAPaCa2 cells assessed as late apoptotic cells at 20 uM after 24 hrs by Annexin V-FITC/propidium iodide staining based flow cytometry (reference value: 7.4%); type: functional
MIA PaCa-2 [27] = assay: Induction of apoptosis in human MIAPaCa2 cells assessed as necrotic cells at 20 uM after 24 hrs by Annexin V-FITC/propidium iodide staining based flow cytometry (reference value: 0.63%); type: functional
MIA PaCa-2 [28] = assay: Induction of apoptosis in human MIAPaCa2 cells assessed as early apoptotic cells at 20 uM after 48 hrs by Annexin V-FITC/propidium iodide staining based flow cytometry (reference value: 5.16%); type: functional
MIA PaCa-2 [29] = assay: Induction of apoptosis in human MIAPaCa2 cells assessed as necrotic cells at 20 uM after 48 hrs by Annexin V-FITC/propidium iodide staining based flow cytometry (reference value: 0.63%); type: functional
BXPC-3 [30] = assay: Induction of apoptosis in human BxPC3 cells assessed as increase in cleaved PARP protein expression at 20 uM after 15 to 48 hrs by Western blot analysis; type: functional, cell-based
MIA PaCa-2 [31] = assay: Induction of autophagy in human MIAPaCa2 cells assessed as increase in LC3-2 protein expression at 20 uM after 15 to 48 hrs by Western blot analysis; type: functional, cell-based
BXPC-3 [32] = assay: Induction of apoptosis in human BxPC3 cells assessed as accumulation at sub-G0/G1 phase at 20 uM after 48 hrs in presence of autophagy inhibitor bafilomycin A1 by propidium iodide staining based flow cytometry; type: functional, cell-based
BXPC-3 [33] = assay: Induction of apoptosis in human BxPC3 cells assessed as accumulation at sub-G0/G1 phase at 20 uM after 48 hrs in presence of autophagy inhibitor chloroquine by propidium iodide staining based flow cytometry; type: functional, cell-based

Row | Structure (SMILES) | Activity (BXPC-3 [1]) [%] | Activity (BXPC-3 [2]) [%] | Activity (BXPC-3 [3]) [%] | Activity (BXPC-3 [4]) [%] | Activity (BXPC-3 [5]) [%] | Activity (PANC-1 [6]) [%] | Activity (PANC-1 [7]) [%] | Activity (PK9 [8]) [%] | Activity (PK9 [9]) [%] | Activity (Fibroblast [10]) [%] | Activity (Fibroblast [11]) [%] | Activity (Fibroblast [12]) [%] | Activity [13] [%] | Activity [14] [%] | Activity (PANC-1 [15]) [%] | Activity (BXPC-3 [16]) [%] | Activity (BXPC-3 [17]) [%] | Activity (BXPC-3 [18]) [%] | Activity (BXPC-3 [19]) [%] | Activity (PK9 [20]) [%] | other results
1 | CCCCCC/C=C\CCCCCCCCOC[C@H]1NC[C@H](O)[C@@H]1O | 15.8 | 33.7 | 46.8 | 6.7 | 8.6 | 5.3 | 27.1 | 10.1 | 20 | 9.2 | 13.9 | 18.7 | 70.6 | 75.7 | 18.6 | 9.6 | 12.8 | 2 | 3.7 | 3.8 | Activity (PK9 [21]): 6.5%; Activity [22]: 30.8%; Activity [23]: 42.1%; Activity (MIA PaCa-2 [24]): 76.71%; Activity (MIA PaCa-2 [25]): 11.88%; Activity (MIA PaCa-2 [26]): 10.68%; Activity (MIA PaCa-2 [27]): 0.71%; Activity (MIA PaCa-2 [28]): 47.46%; Activity (MIA PaCa-2 [29]): 3.44%; Activity (BXPC-3 [30]): Active; Activity (MIA PaCa-2 [31]): Active; Activity (BXPC-3 [32]): Active; Activity (BXPC-3 [33]): Active
2 | CCCCCCCCCCCCCCCCCCOCC(COP(=O)([O-])OCC[N+](C)(C)C)OC (stereo unspecified) [EDELFOSINE] | 16.8 | 28.9 | 39.2 | 5 | 2.8 | 8.46 | 23.2 | 4.8 | 11.2 | 7.3 | 8.6 | 9.8 | 2.8 | 7.3 | 15.8 | 14.2 | 16.5 | 1.8 | 3.7 | 3.8 | Activity (PK9 [21]): 10.3%; Activity [22]: 3.5%; Activity [23]: 4.8%; Activity (MIA PaCa-2 [24]): 11.51%; Activity (MIA PaCa-2 [25]): 28.49%; Activity (MIA PaCa-2 [26]): 52.52%; Activity (MIA PaCa-2 [27]): 7.47%; Activity (MIA PaCa-2 [28]): 49.78%; Activity (MIA PaCa-2 [29]): 1.79%; Activity (BXPC-3 [30]): Active; Activity (MIA PaCa-2 [31]): Active; Activity (BXPC-3 [32]): Active; Activity (BXPC-3 [33]): Active

Reference: ChEMBL document CHEMBL4196088, “Induction of cell killing and autophagy by amphiphilic pyrrolidine derivatives on human pancreatic cancer cells” (Eur J Med Chem, 2018)
